Measured values as given in US20260069563A1, “CETOLEIC ACID COMPOSITION” (Epax Norway AS, priority 2022, published 2026).

Tested on: human fibroblasts
Test: Wound healing model (scratch wound) in human fibroblasts
Assay type: cell-based
Details: 14 hours after wounding; initial wound area defined as 100%; added to cell culture medium
Text: Preliminary cell studies with human fibroblasts have been performed to test potential health benefits of LCMUFA in skin.
The main objective of the study was to show whether addition of a LCMUFA concentrate (Cetoleic acid concentrate) or DHA to cell culture medium would: • 1) Influence the capacity of the cells to regenerate after damage (so called “wound healing model”), • 2) Influence the production of melanin (skin pigment), • 3) Influence the expression of genes involved in inflammation after induced oxidative stress.
Wound healing model: Treatment arms included addition of DHA or the LCMUFA contrate to the cell culture medium, respectively. The control was cells only added culture medium, no fatty acids. The effect on closing of wound 14 hours after initiation of a wound was measured.
The initial wound area was defined as 100%, then the wound opening was measured after 14 hours to a percentage of the original wound. The reduction was approximately 60% for LC-MUFA and 50% for DHA, respectively.

SMILES: CC/C=C\C/C=C\C/C=C\C/C=C\C/C=C\C/C=C\CCC(=O)O [DHA, Docosahexaenoic acid]
- reduction of scratch wound area: ~50%
